Measurements taken from patent publication US7928096B2, “Polydiazeniumdiolated cyclic polyamines with polyphasic nitric oxide release and related compounds, compositions comprising same and methods of using same” (The United States of America, as represented by the …, priority 2002, dated 2011).
Read-outs that look alike come from different tables or passages of the source.

Assays:
[1] = Total moles of NO released by chemiluminescence; type: physicochemical; settings: for Ideal moles of NO released: theoretical (ideal) amount; for Moles of NO released: chemiluminescence
Experimental: (§1) The total moles of NO released were determined by chemiluminescence as previously described in Hrabie et al. (New Nitric Oxide Releasing Zwitterions Derived from Polyamines. J. Org. Chem., 1993, 58, 1472-1476). The NO release rates for the compounds prepared in Example 1 and Example 2 were determined by UV spectrophotometry by adding a stock solution of the compound in 0.01 M NaOH to pH 7.4 phosphate buffer (0.1 M) contained in a standard UV cell to generate final solutions at concentrations in the range of 50 to 100 μM. The rate of NO release was determined by the decrease in 250-252 nm absorbance over time at 37° C. as previously described by Keefer et al. (“NONOates” (1-Substituted Diazen-1-ium-1,2-diolates) as Nitric Oxide Donors: Convenient Nitric Oxide Dosage Forms. Methods in Enzymology, 1996, 268, 281-293). The results of the NO release of piperazine bisdiazeniumdiolate as discussed in Hrabie et al. (Organic Preparations and Procedures International, 1999, 31(2), 189-192) are included as a comparative example.

[2] = comparative example from Hrabie et al. 1999; cited from earlier work
[3] = NO release monitored by chemiluminescence of effluent gas stream treated with ozone; settings: pH 7.4 phosphate buffer at 37° C.
Experimental: The diazeniumdiolated compound described in Example 4 was dissolved in pH 7.4 phosphate buffer at 37° C., and the release of NO was monitored by detection of the chemiluminescence generated by treatment of the effluent gas steam with ozone.
The diazeniumdiolated compound described in Example 5 was dissolved in pH 7.4 phosphate buffer at 37° C., and the release of NO was monitored by detection of the chemiluminescence generated by treatment of the effluent gas steam with ozone.
The diazeniumdiolated compound described in Example 6 was dissolved in pH 7.4 phosphate buffer at 37° C., and the release of NO was monitored by detection of the chemiluminescence generated by treatment of the effluent gas steam with ozone.
The diazeniumdiolated compound described in Example 7 was dissolved in pH 7.4 phosphate buffer at 37° C., and the release of NO was monitored by detection of the chemiluminescence generated by treatment of the effluent gas steam with ozone.
The diazeniumdiolated compound described in Example 9 was dissolved in pH 7.4 phosphate buffer at 37° C., and the release of NO was monitored by detection of the chemiluminescence generated by treatment of the effluent gas steam with ozone.

[4] = NO release rate by UV spectrophotometry (decrease in 250-252 nm absorbance); type: physicochemical; settings: phosphate buffer, pH 7.4, pH 7.4 phosphate buffer (0.1 M), 37° C., 50 to 100 μM
Source text: The invention provides a cyclic polyamine compound comprising at least three amino groups, wherein at least two of the amino groups are covalently bound to a nitrogen oxide-releasing group of the formula N2O2M, in which M is a pharmaceutically acceptable cation. The invention also provides a compound that has a polyphasic release of nitric oxide, wherein any subsequent release of nitric oxide has a rate that is at least about 3 times smaller than an initial rate of nitric oxide release. The rate of NO release can be determined by any suitable method. For example, the rate of NO release can be measured by the decrease in 250-252 nm absorbance over time at 37° C. as previously described by Keefer et al., “NONOates” (1-Substituted Diazen-1-ium-1,2-diolates) as Nitric Oxide Donors: Convenient Nitric Oxide Dosage Forms. Methods in Enzymology, 1996, 268, 281-293.
as §1

[5] = read-out: t1/2 of initial phase
[6] = read-out: t1/2 of second phase (converted)

| Compound | Ideal moles of NO released [1] | Moles of NO released [2] | biphasic release of NO, first rate of release [3] | biphasic release of NO, second rate of release [3] | Moles of NO released [1] | melting point | half-life [4, 5] | half-life [4, 6] |
| --- | --- | --- | --- | --- | --- | --- | --- | --- |
| piperazine bisdiazeniumdiolate [reference compound] | 4 mol | 4.3 mol | – | – | – | – | – | – |
| O=NN([O-])N1CCN2CCN(CCN(N([O-])N=O)CC1)C(=O)C2=O.[Na+].[Na+] [Example 6, 1,4-bis(diazeniumdiolated)-1,4,7,10-tetraazabicyclo[8.2.2]tetradecane-11,12-dione, disodium salt] | – | – | 1.0 min | 41.5 min | – | – | – | – |
| CCOC(=O)N1CCN(/[N+]([O-])=N/[O-])CCN(C(=O)OCC)CCN(/[N+]([O-])=N/[O-])CC1.[Na+].[Na+] [Example 7, 1,7-diazeniumdiolated-4,10-bis(ethoxycarbonyl)-1,4,7,10-tetraazacyclododecane, disodium salt] | – | – | 0.36 min | 60.9 min | – | – | – | – |
| [Na+].[Na+].[O-]/N=[N+](\[O-])N1CCCN(/[N+]([O-])=N/[O-])CCNCCCNCC1 [Example 1, 1,4,8,11-tetraazacyclotetradecane-1,11-bisdiazeniumdiolate] | 4 mol | – | – | – | 3.3 mol | 181 to 182 °C | 0.0283 h | 8.9 h |
| [Na+].[Na+].[O-]/N=[N+](\[O-])N1CCNCCNCCN(/[N+]([O-])=N/[O-])CC1 [Example 2, 1,4,7,10-tetraazacyclododecane-1,4-bisdiazeniumdiolate] | 4 mol | – | – | – | 3.3 mol | 183 to 185 °C (dec.) | 0.0283 h | 8.8 h |
| O=C1C(=O)N2CCCN([N+]([O-])=N[O-])CCN([N+]([O-])=N[O-])CCCN1CC2.[Na+].[Na+] [Example 9, 1,4-bis(diazeniumdiolated)-1,5,8,12-tetraazabicyclo[10.2.2.]hexadecane-13,14-dione, disodium salt] | – | – | 1.1 min | 161 min | – | – | – | – |
